Source: US7601716B2, “Pyridopyrazines and derivatives thereof as ALK and c-Met inhibitors” (Cephalon, Inc., priority 2006, dated 2009)
Where a name gives a salt, the structure may show the parent alone.

How the values were obtained:
[1] = target: T1, c-Met (cytoplasmic domain) (Homo sapiens, UniProt P08581); assay: c-Met Kinase Assay (ELISA/TRF, PLC-γ substrate); type: biochemical; conditions: 3 μM ATP (Km level); read-out: c-Met Kinase Inhibition (IC50)
T1 construct: Reactions were initiated with 30 ng/mL c-Met (cytoplasmic domain, Invitrogen Corporation #PV3143); purchased Invitrogen Corporation PV3143
In short: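 c-Met cytoplasmic domain (30 ng/mL) phosphorylates plate-coated GST–PLC-γ for 15 min at 37 °C. Phosphotyrosine detected with Eu-labeled PT66 antibody by time-resolved fluorescence. IC50 from variable-slope sigmoidal fit of % inhibition vs log concentration.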

[2] = target: baculovirus-expressed ALK (Homo sapiens, UniProt Q9UM73); assay: ALK Kinase Assay (ELISA/TRF, PLC-γ substrate); type: biochemical; conditions: read-out: ALK Kinase Inhibition (IC50); also: 1 µM ATP (Km level)
In short: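 An ELISA adapted from a trkA format was used: wells carried GST-fused PLC-γ substrate, and enzyme addition (30 ng/ml ALK) started a 15-minute reaction at 37° C.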

Sequence of baculovirus-expressed ALK (Q9UM73 19-1620): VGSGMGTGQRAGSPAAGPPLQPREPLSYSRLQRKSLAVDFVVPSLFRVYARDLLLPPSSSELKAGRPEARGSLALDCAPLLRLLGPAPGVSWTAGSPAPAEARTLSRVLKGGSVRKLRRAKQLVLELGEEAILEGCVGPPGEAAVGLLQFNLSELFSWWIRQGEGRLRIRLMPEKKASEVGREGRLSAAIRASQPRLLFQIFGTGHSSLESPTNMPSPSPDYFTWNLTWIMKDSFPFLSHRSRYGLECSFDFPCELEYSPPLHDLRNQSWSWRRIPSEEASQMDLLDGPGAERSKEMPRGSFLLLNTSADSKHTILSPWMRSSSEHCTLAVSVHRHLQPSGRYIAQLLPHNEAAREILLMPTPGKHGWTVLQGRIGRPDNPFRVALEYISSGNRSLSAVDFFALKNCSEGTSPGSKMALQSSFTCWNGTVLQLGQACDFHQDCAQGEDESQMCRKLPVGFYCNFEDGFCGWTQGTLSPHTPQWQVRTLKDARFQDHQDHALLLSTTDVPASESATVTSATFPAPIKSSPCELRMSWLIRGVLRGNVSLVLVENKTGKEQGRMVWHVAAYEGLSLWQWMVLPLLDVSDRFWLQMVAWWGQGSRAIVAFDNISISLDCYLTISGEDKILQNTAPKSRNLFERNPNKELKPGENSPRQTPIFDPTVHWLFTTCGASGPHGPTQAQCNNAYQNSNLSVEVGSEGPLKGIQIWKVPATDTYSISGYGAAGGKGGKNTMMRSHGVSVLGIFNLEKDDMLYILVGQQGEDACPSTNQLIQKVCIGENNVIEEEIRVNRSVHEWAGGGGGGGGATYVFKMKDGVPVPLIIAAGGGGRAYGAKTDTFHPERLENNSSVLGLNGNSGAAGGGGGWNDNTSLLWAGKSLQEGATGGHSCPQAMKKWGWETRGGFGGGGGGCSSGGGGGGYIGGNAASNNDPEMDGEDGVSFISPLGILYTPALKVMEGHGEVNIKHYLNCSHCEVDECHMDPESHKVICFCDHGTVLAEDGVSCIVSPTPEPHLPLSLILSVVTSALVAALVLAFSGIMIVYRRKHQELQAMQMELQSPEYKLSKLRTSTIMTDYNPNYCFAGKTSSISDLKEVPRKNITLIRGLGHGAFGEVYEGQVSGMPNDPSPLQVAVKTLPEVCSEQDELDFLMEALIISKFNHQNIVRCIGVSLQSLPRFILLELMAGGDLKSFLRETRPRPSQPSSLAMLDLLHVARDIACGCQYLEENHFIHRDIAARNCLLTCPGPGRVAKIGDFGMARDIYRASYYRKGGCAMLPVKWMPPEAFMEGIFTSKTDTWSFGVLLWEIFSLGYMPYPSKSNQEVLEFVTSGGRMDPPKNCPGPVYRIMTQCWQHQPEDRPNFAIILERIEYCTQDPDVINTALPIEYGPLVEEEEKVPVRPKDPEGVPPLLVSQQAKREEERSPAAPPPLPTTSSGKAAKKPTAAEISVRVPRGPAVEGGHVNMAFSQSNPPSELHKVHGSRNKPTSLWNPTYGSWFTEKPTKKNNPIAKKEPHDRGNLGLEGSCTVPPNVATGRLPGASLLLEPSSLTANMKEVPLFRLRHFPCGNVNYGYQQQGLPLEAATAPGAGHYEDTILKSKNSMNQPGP
T1 sequence (P08581 956-1390 limits assumed): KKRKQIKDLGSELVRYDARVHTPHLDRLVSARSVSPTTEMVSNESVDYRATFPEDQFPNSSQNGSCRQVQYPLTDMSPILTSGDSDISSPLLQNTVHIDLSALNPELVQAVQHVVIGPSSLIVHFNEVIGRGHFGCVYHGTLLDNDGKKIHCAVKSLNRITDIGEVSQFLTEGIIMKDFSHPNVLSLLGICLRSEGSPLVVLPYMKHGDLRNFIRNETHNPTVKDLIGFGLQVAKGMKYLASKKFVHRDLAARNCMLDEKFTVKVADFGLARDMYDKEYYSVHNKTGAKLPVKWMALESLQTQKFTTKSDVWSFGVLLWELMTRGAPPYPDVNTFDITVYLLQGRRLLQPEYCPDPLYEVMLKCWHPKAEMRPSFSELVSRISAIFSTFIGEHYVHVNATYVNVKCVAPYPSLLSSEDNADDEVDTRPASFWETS

Structure (SMILES)	IC50 [1] [µM]	IC50 [2] [µM]
CN1CCN(C(=O)c2ccc(-c3cnc4c(c3)N(Cc3cc(F)c(F)cc3F)CCN4)cc2)CC1 [Example 86, (4-Methylpiperazin-1-yl)-{4-[1-(2,4,5-trifluorobenzyl)-1,2,3,4-tetrahydropyrido[2,3-b]pyrazin-7-yl]phenyl}-methanone]	1 to 10	1 to 10
O=C1CNc2ncc(-c3ccc(NC(=O)N4CCC[C@H]4CN4CCCC4)cc3)cc2N1Cc1cc(F)ccc1F [Example 61, (S)-2-[(pyrrolidin-1-yl)methyl]pyrrolidine-1-carboxylic acid{4-[1-(2,5-difluorobenzyl)-2-oxo-1,2,3,4-tetrahydropyrido[2,3-b]pyrazin-7-yl]phenyl}-amide]	1 to 10	0.1 to 1
CN1CCN(C(=O)c2ccc(-c3cnc4c(c3)C(Oc3cc(Cl)ccc3Cl)CCN4)cc2)CC1 (stereo not shown) [Example 272, {4-[5-(2,5-Dichlorophenoxy)-5,6,7,8-tetrahydro-[1,8]naphthyridin-3-yl]phenyl}-(4-methyl-piperazin-1-yl)methanone]	1 to 10	0.1 to 1
CN1CCN(c2ccc(-c3cnc4c(c3)C(Cc3cc(F)ccc3F)CCN4)cn2)CC1 (stereo not shown) [Example 286, 4-(2,5-Difluorobenzyl)-6-[6-(4-methylpiperazin-1-yl)pyridin-3-yl]-1,2,3,4-tetrahydro-[1,8]naphthyridine]	> 100	1 to 10
CN1CCN(c2ccc(-c3cnc4c(c3)C(Oc3cccc(Cl)c3)CCN4)cn2)CC1 (stereo not shown) [Example 281, 4-(3-Chlorophenoxy)-6-[6-(4-methylpiperazin-1-yl)pyridin-3-yl]-1,2,3,4-tetrahydro-[1,8]naphthyridine]	1 to 10	0.1 to 1
Fc1ccc(F)c(CN2CCNc3ncc(-c4ccnc(N5CCCC5)c4)cc32)c1Cl [Example 183, 1-(2-Chloro-3,6-difluorobenzyl)-7-(2-pyrrolidin-1-yl-pyridin-4-yl)-1,2,3,4-tetrahydropyrido[2,3-b]pyrazine]	1 to 10	0.1 to 1
Clc1cccc(OC2CCNc3ncc(-c4cccc(N5CCOCC5)c4)cc32)c1 (stereo not shown) [Example 279, 4-(3-Chlorophenoxy)-6-(3-morpholin-4-yl-phenyl)-1,2,3,4-tetrahydro-[1,8]naphthyridine]	10 to 100	1 to 10
O=C(c1ccccc1)N1CCNc2ncc(-c3ccc(NS(=O)(=O)CCN4CCCC4)cc3)cc21 [Example 46, 2-Pyrrolidin-1-yl-ethanesulfonic acid[4-(1-benzoyl-1,2,3,4-tetrahydropyrido[2,3-b]pyrazin-7-yl)phenyl]amide]	10 to 100	10 to 100
CS(=O)(=O)c1ccc(-c2cnc3c(c2)N(Cc2ccccc2)C(=O)CN3)cc1 [Example 24, 1-Benzyl-7-(4-methanesulfonyl-phenyl)-3,4-dihydro-1H-pyrido[2,3-b]pyrazin-2-one]	> 100	1 to 10
CN(C)CCCCCCNC(=O)c1ccc(-c2cnc3c(c2)N(Cc2c(Cl)cccc2Cl)C(=O)CN3)cc1 [Example 143, 4-[1-(2,6-Dichlorobenzyl)-2-oxo-1,2,3,4-tetrahydropyrido[2,3-b]pyrazin-7-yl]-N-(6-dimethylaminohexyl)benzamide, trifluoroacetic acid salt]	1 to 10	0.1 to 1
CC(=O)c1ccc(F)cc1OC1CCNc2ncc(-c3ccc(C(=O)N4CCN(C)CC4)cc3)cc21 (stereo not shown) [Example 277, 1-(4-Fluoro-2-{6-[4-(4-methylpiperazine-1-carbonyl)phenyl]-1,2,3,4-tetrahydro-[1,8]naphthyridin-4-yloxy}phenyl)ethanone]	10 to 100	10 to 100
O=C1CNc2ncc(-c3cccc(C(=O)N4CCC[C@H]4CN4CCCC4)c3)cc2N1Cc1ccccc1 [Example 18, S-1-Benzyl-7-[3-(2-[(pyrrolidin-1-yl)methyl]pyrrolidine-1-carbonyl)phenyl]-3,4-dihydro-1H-pyrido[2,3-b]pyrazin-2-one, trifluoroacetic acid salt]	10 to 100	1 to 10
CN1CCN(C(=O)c2ccc(-c3cnc4c(c3)C(O)CCN4)cc2)CC1 (stereo not shown) [Example 270, [4-(5-Hydroxy-5,6,7,8-tetrahydro-[1,8]naphthyridin-3-yl)phenyl]-(4-methyl-piperazin-1-yl)methanone]	> 100	> 100
CN1CCN(C(=O)c2cnc3c(c2)N(Cc2cc(F)ccc2F)CCN3)CC1 [Example 79, [1-(2,5-Difluorobenzyl)-1,2,3,4-tetrahydropyrido[2,3-b]pyrazin-7-yl]-(4-methylpiperazin-1-yl)methanone]	> 100	10 to 100

Continued, values first:

IC50 [1] [µM]	IC50 [2] [µM]	Structure (SMILES)
10 to 100	1 to 10	CN1CCN(C(=O)c2ccc(-c3cnc4c(c3)N(Cc3ccccc3)C(=O)CN4)cc2)CC1 [Example 25, 1-Benzyl-7-[4-(4-methylpiperazine-1-carbonyl)phenyl]-3,4-dihydro-1H-pyrido[2,3-b]pyrazin-2-one, trifluoroacetic acid salt]
10 to 100	1 to 10	COc1ccccc1N1CCN(C(=O)c2cnc3c(c2)N(Cc2cc(Cl)ccc2Cl)CCN3)CC1 [Example 210, [1-(2,5-Dichlorobenzyl)-1,2,3,4-tetrahydropyrido[2,3-b]pyrazin-7-yl]-[4-(2-methoxyphenyl)piperazin-1-yl]methanone]
> 100	> 100	CCNC(=O)c1cccc(-c2cnc3c(c2)N(Cc2ccccc2)C(=O)CN3)c1 [Example 22, 3-(1-Benzyl-2-oxo-1,2,3,4-tetrahydropyrido[2,3-b]pyrazin-7-yl)-N-ethyl-benzamide]
> 100	1 to 10	COc1ccc(CNC(=O)c2cnc3c(c2)N(Cc2cc(Cl)ccc2Cl)CCN3)cc1 [Example 258, 1-(2,5-Dichlorobenzyl)-1,2,3,4-tetrahydropyrido[2,3-b]pyrazine-7-carboxylic acid 4-methoxybenzylamide]
> 100	1 to 10	O=C(c1cnc2c(c1)N(Cc1cc(Cl)ccc1Cl)CCN2)N1CCC2(CC1)C(=O)NCN2c1ccccc1 [Example 216, 8-[1-(2,5-Dichlorobenzyl)-1,2,3,4-tetrahydropyrido[2,3-b]pyrazine-7-carbonyl]-1-phenyl-1,3,8-triaza-spiro[4.5]decan-4-one]
> 100	0.1 to 1	O=C(NCc1ccccc1)c1cnc2c(c1)N(Cc1cc(Cl)ccc1Cl)CCN2 [Example 246, 1-(2,5-Dichlorobenzyl)-1,2,3,4-tetrahydropyrido[2,3-b]pyrazine-7-carboxylic acid benzylamide]
> 100	10 to 100	O=C(c1cnc2c(c1)N(Cc1cc(Cl)ccc1Cl)CCN2)N1CCN(CC2CCCCC2)CC1 [Example 262, [(4-Cyclohexylmethyl)piperazin-1-yl]-[1-(2,5-dichlorobenzyl)-1,2,3,4-tetrahydropyrido[2,3-b]pyrazin-7-yl]methanone]
> 100	> 100	O=C(O)c1ccc(-c2cnc3c(c2)N(Cc2cccnc2Cl)CCN3)cc1 [Example 302, 4-[1-(2-Chloropyridin-3-ylmethyl)-1,2,3,4-tetrahydropyrido[2,3-b]pyrazin-7-yl]benzoic acid]
10 to 100	1 to 10	O=C(NCc1cccnc1)c1cnc2c(c1)N(Cc1cc(Cl)ccc1Cl)CCN2 [Example 235, 1-(2,5-Dichlorobenzyl)-1,2,3,4-tetrahydropyrido[2,3-b]pyrazine-7-carboxylic acid (pyridin-3-ylmethyl)amide]
> 100	10 to 100	O=C(c1cnc2c(c1)N(Cc1cc(Cl)ccc1Cl)CCN2)N1CCC(c2noc3cc(F)ccc23)CC1 [Example 221, [1-(2,5-Dichlorobenzyl)-1,2,3,4-tetrahydropyrido[2,3-b]pyrazin-7-yl]-[4-(6-fluorobenzo[d]isoxazol-3-yl)piperidin-1-yl]methanone]
1 to 10	1 to 10	O=C(c1cnc2c(c1)N(Cc1cc(Cl)ccc1Cl)CCN2)N1CCN(c2nccc3occc23)CC1 [Example 220, [1-(2,5-Dichlorobenzyl)-1,2,3,4-tetrahydropyrido[2,3-b]pyrazin-7-yl]-(4-furo[3,2-c]pyridin-4-yl-piperazin-1-yl)methanone]
10 to 100	1 to 10	CN(C)CCNC(=O)c1cccc(-c2cnc3c(c2)N(Cc2ccccc2)C(=O)CN3)c1 [Example 19, 3-(1-Benzyl-2-oxo-1,2,3,4-tetrahydropyrido[2,3-b]pyrazin-7-yl)-N-(2-dimethylamino-ethyl)benzamide, trifluoroacetic acid salt]
10 to 100	10 to 100	O=C(c1cnc2c(c1)N(Cc1cc(Cl)ccc1Cl)CCN2)N1CCN(C(c2ccccc2)c2ccccc2)CC1 [Example 214, (4-Benzhydrylpiperazin-1-yl)-[1-(2,5-dichlorobenzyl)-1,2,3,4-tetrahydropyrido[2,3-b]pyrazin-7-yl]methanone]
> 100	1 to 10	O=C(c1cnc2c(c1)N(Cc1cc(Cl)ccc1Cl)CCN2)N1CCN(c2ccccc2Cl)CC1 [Example 261, [4-(2-Chlorophenyl)piperazin-1-yl]-[1-(2,5-dichlorobenzyl)-1,2,3,4-tetrahydropyrido[2,3-b]pyrazin-7-yl]methanone]
> 100	1 to 10	O=C(NCc1cc(C(F)(F)F)cc(C(F)(F)F)c1)c1cnc2c(c1)N(Cc1cc(Cl)ccc1Cl)CCN2 [Example 239, 1-(2,5-Dichlorobenzyl)-1,2,3,4-tetrahydropyrido[2,3-b]pyrazine-7-carboxylic acid 3,5-bis-(trifluoromethyl)benzylamide]
